Source: patent US20170333391A1, “METHOD FOR DELAYING THE ONSET OF PULMONARY FIBROSIS OR TREATING PULMONARY FIBROSIS” (EVERFRONT BIOTECH INC., priority 2016, published 2017)

Columns and labels:
[1] = tested on: type I collagen; assay: Type I collagen expression in transfected NHLF (pcDNA3.1 empty vector or pcDNA3.1-SOX2), western blotting (2-3); type: cell-based, human; settings: TGF-β1 5 ng/ml 12 h
Method: The pcDNA3.1 empty vector and the pcDNA3.1-SOX2 plasmid (i.e., pcDNA3.1 vector containing SOX2 gene) were respectively transfected into Normal Human lung fibroblasts (NHLF) by the Fugene HD cell transfection reagent. The cells were screened to obtain NHLFs containing the pcDNA3.1 empty vector or the pcDNA3.1-SOX2 plasmid.
NHLFs containing the pcDNA3.1 empty vector were then seeded into 6 cm culture dishes at a density of 2×10^5 cells/dish, comprising a control group and three experimental groups (4 dishes in total). The cells were cultured until the next day, and then the mediums were removed. Each group was respectively treated under the following conditions to conduct follow-up experiments: • (1) Control group I: cells were cultured in a FGM-2 medium containing 1% serum for 36 hours; • (2) Group A: cells were cultured in a FGM-2 medium containing 1% serum and TGF-β1 (5 ng/ml) for 36 hours; • (3) Group B: cells were firstly cultured in a FGM-2 medium containing 1% serum and TGF-β1 (5 ng/ml) for 12 hours, and then compound (1) was added into the medium to provide a final concentration of 15 μg/ml; thereafter, the cells were cultured for another 24 hours; and • (4) Group C: cells were firstly cultured in a FGM-2 medium containing 1% serum and TGF-β1 (5 ng/ml) for 12 hours, and then compound (1) was added into the medium to provide a final concentration of 30 μg/ml; thereafter, the cells were cultured for another 24 hours.
In another aspect, NHLFs containing the pcDNA3.1-SOX2 plasmid were seeded into the 6 cm culture dishes at a density of 2×10^5 cells/dish, comprising a control group and three experimental groups (4 dishes in total). The cells were cultured until the next day, and then the mediums were removed. Each group was respectively treated under the following conditions to conduct follow-up experiments: • (1) Control group II: cells were cultured in a FGM-2 medium containing 1% serum for 36 hours; • (2) Group D: cells were cultured in a FGM-2 medium containing 1% serum and TGF-β1 (5 ng/ml) for 36 hours; • (3) Group E: cells were firstly cultured in a FGM-2 medium containing 1% serum and TGF-β1 (5 ng/ml) for 12 hours, and then the compound (1) was added into the medium to provide a final concentration of 15 μg/ml; thereafter, the cells were cultured for another 24 hours; and • (4) Group F: cells were firstly cultured in a FGM-2 medium containing 1% serum and TGF-β1 (5 ng/ml) for 12 hours, and then the compound (1) was added into the medium to provide a final concentration of 30 μg/ml; thereafter, the cells were cultured for another 24 hours.
Thereafter, the proteins in the cells of each group were extracted, and the expressions of Sox2 protein, TGF-β protein and type I collagen in the NHLF cells of each group were measured with western blotting. […]

[2] = tested on: TGF-β protein; assay: TGF-β protein expression in TGF-β1-induced NHLF, western blotting (Example 4); type: cell-based, human; settings: uninduced control = 1, TGF-β1-only group A = 1.75
Method: Normal Human lung fibroblasts (NHLF) were seeded into 6 cm culture dishes at a density of 2×10^5 cells/dish, comprising a control group and five experimental groups (6 dishes in total). The cells were cultured until the next day, and then the mediums were removed. Each group was respectively treated under the following conditions to conduct follow-up experiments: • (1) Control group: cells were cultured in a FGM-2 medium containing 1% serum for 36 hours; • (2) Group A: cells were cultured in a FGM-2 medium containing 1% serum and TGF-β1 (5 ng/ml) for 36 hours; • (3) Group B: cells were firstly cultured in a FGM-2 medium containing 1% serum and TGF-β1 (5 ng/ml) for 12 hours, and then compound (1) was added into the medium to provide a final concentration of 15 μg/ml; thereafter, the cells were cultured for another 24 hours; • (4) Group C: cells were firstly cultured in a FGM-2 medium containing 1% serum and TGF-β1 (5 ng/ml) for 12 hours, and then compound (1) was added into the medium to provide a final concentration of 30 μg/ml; thereafter, the cells were cultured for another 24 hours; • (5) Group D: cells were firstly cultured in a FGM-2 medium containing 1% serum and TGF-β1 (5 ng/ml) for 12 hours, and then compound (2) was added into the medium to provide a final concentration of 100 μg/ml; thereafter, the cells were cultured for another 24 hours; and • (6) Group E: cells were firstly cultured in a FGM-2 medium containing 1% serum and TGF-β1 (5 ng/ml) for 12 hours, and then compound (2) was added into the medium to provide a final concentration of 200 μg/ml; thereafter, the cells were cultured for another 24 hours.
Thereafter, the proteins in the cells of each group were extracted, and the expressions of BMP-7 protein, TGF-β protein and p-smad2/3 protein in the NHLF cells of each group were measured with western blotting. The results of the control group served as the basis for calculating the relative expression levels of the other groups.

Q: `CCCC=C1OC(=O)c2ccccc21` [compound (1)] was tested. Which “Relative expression level (fold) Type I collagen” value ([1]; Group B: NHLF with pcDNA3.1 empty vector, then compound (1) 15 μg/ml 24 h, control group I = 1, TGF-β1-only group A = 5.83) did it give?
A: 3.74 fold

Q: And the “Relative expression level (fold) Type I collagen” value ([1]; Group C: NHLF with pcDNA3.1 empty vector, then compound (1) 30 μg/ml 24 h, control group I = 1, TGF-β1-only group A = 5.83)?
A: 0.88 fold

Q: What about the “Relative expression level (fold) Type I collagen” value ([1]; Group E: NHLF with pcDNA3.1-SOX2 plasmid, then compound (1) 15 μg/ml 24 h, control group II = 1, TGF-β1-only group D = 1.57) of the same compound?
A: 1.30 fold

Q: What about the “Relative expression level (fold) Type I collagen” value ([1]; Group F: NHLF with pcDNA3.1-SOX2 plasmid, then compound (1) 30 μg/ml 24 h, control group II = 1, TGF-β1-only group D = 1.57) of the same compound?
A: 1.29 fold

Q: What about the “Relative expression level (fold) TGF-β protein” value ([2]; Group B: TGF-β1 5 ng/ml 12 h, then compound (1) 15 μg/ml 24 h) of the same compound?
A: 1.27 fold

Q: What about the “Relative expression level (fold) TGF-β protein” value ([2]; Group C: TGF-β1 5 ng/ml 12 h, then compound (1) 30 μg/ml 24 h) of the same compound?
A: 1.34 fold
